Experiments:
Assay type in all cases: functional, cell-based
[1] = Antiinflammatory activity in neutrophil assessed as inhibition of fMLP induced elastase release; conditions: Homo sapiens
[2] = Anticoagulant activity assessed as inhibition of arachidonic acid induced rabbit platelet aggregation; conditions: Oryctolagus cuniculus
[3] = Antiinflammatory activity in neutrophils assessed as inhibition of oxygen radical generation; conditions: Homo sapiens, Neutrophil
[4] = Anticoagulant activity assessed as inhibition of thrombin induced rabbit platelet aggregation; conditions: Oryctolagus cuniculus

IC50 [1] [µM] | IC50 [2] [µM] | IC50 [3] [µM] | IC50 [4] [µM] | SMILES
> 40 | > 100 | > 40 | > 100 | COC(=O)c1ccccc1NC(=O)c1ccc(Br)cc1
> 40 | 2.2 | > 40 | > 100 | COC(=O)c1ccc(Cl)cc1NC(=O)c1ccccc1F
> 40 | > 100 | > 40 | > 100 | COC(=O)c1ccc(Cl)cc1NC(=O)c1ccc(C)cc1
> 40 | 3.6 | > 40 | > 100 | CCOC(=O)c1ccc(Cl)cc1NC(=O)c1ccccc1Br
> 40 | > 100 | > 40 | > 100 | COC(=O)c1ccccc1NC(=O)c1cccc(Cl)c1
> 40 | > 100 | > 40 | > 100 | COC(=O)c1ccccc1NC(=O)c1ccc(F)cc1
> 40 | 2.2 | > 40 | > 100 | COC(=O)c1ccc(Cl)cc1NC(=O)c1ccccc1OC
> 40 | 0.8 | > 40 | > 100 | CCOC(=O)c1ccc(Cl)cc1NC(=O)c1ccccc1Cl
> 40 | > 100 | > 40 | > 100 | COC(=O)c1ccc(Cl)cc1NC(=O)c1ccc(Cl)cc1
> 40 | > 100 | > 40 | > 100 | COC(=O)c1ccccc1NC(=O)c1ccc(OC)cc1
> 40 | 3.8 | > 40 | > 100 | CCOC(=O)c1ccc(Cl)cc1NC(=O)c1ccccc1F
2.83 | 4.9 | > 40 | > 100 | CCOC(=O)c1ccc(Cl)cc1NC(=O)c1ccccc1C
> 40 | 1.1 | > 40 | > 100 | COC(=O)c1ccc(Cl)cc1NC(=O)c1ccccc1Cl
> 40 | > 100 | > 40 | > 100 | COC(=O)c1ccccc1NC(=O)c1ccc(C)cc1
> 40 | > 100 | > 40 | > 100 | COC(=O)c1ccccc1NC(=O)c1ccc(Cl)cc1
18.3 | > 100 | > 40 | > 100 | COC(=O)c1ccccc1NC(=O)c1cccc(C)c1
> 40 | 4.3 | > 40 | > 100 | COC(=O)c1ccc(Cl)cc1NC(=O)c1ccccc1C
> 40 | 2.6 | > 40 | > 100 | COC(=O)c1ccc(Cl)cc1NC(=O)c1ccccc1Br
4.31 | 4.9 | > 40 | > 100 | CCOC(=O)c1ccc(Cl)cc1NC(=O)c1ccccc1OC
> 40 | > 100 | > 40 | > 100 | COC(=O)c1ccc(Cl)cc1NC(=O)c1ccc(Br)cc1
> 40 | > 100 | > 40 | > 100 | COC(=O)c1ccc(Cl)cc1NC(=O)c1ccc(F)cc1
> 40 | > 100 | > 40 | > 100 | COC(=O)c1ccc(Cl)cc1NC(=O)c1ccc(OC)cc1

The next lines start with the compound.

SMILES | IC50 [1] [µM] | IC50 [2] [µM] | IC50 [3] [µM] | IC50 [4] [µM]
COC(=O)c1cccc(Cl)c1NC(=O)c1ccccc1C | > 40 | > 100 | > 40 | > 100
COC(=O)c1c(Cl)cccc1NC(=O)c1ccccc1F | > 40 | 78.2 | > 40 | > 100
COC(=O)c1c(Cl)cccc1NC(=O)c1ccccc1C | > 40 | > 100 | > 40 | > 100
CCCOC(=O)c1ccc(Cl)cc1NC(=O)c1ccccc1C | > 40 | 2.2 | > 40 | > 100
COC(=O)c1ccccc1NC(=O)c1ccccc1Cl | > 40 | 11 | 11 | > 100
COC(=O)c1ccccc1NC(=O)c1cccc(Br)c1 | 15.4 | > 100 | > 40 | > 100
COC(=O)c1c(Cl)cccc1NC(=O)c1ccccc1OC | > 40 | 62.3 | > 40 | > 100
COC(=O)c1ccccc1NC(=O)c1ccccc1OC | > 40 | 8 | 7.41 | > 100
CC(=O)Oc1ccccc1C(=O)O [ASPIRIN] | > 40 | 152 | > 40 | > 100
COC(=O)c1cccc(Cl)c1NC(=O)c1ccccc1F | > 40 | > 100 | > 40 | > 100
COC(=O)c1cccc(Cl)c1NC(=O)c1ccccc1Br | > 40 | > 100 | > 40 | > 100
COC(=O)c1ccccc1NC(=O)c1cccc(F)c1 | > 40 | > 100 | 10.6 | > 100
CCCOC(=O)c1ccc(Cl)cc1NC(=O)c1ccccc1Br | > 40 | 3.5 | > 40 | > 100
CCCOC(=O)c1ccc(Cl)cc1NC(=O)c1ccccc1F | > 40 | 1.6 | > 40 | > 100
O=S(=O)(F)Cc1ccccc1 [PHENYLMETHYLSULFONYLFLUORIDE] | 131 | – | – | –
COC(=O)c1ccccc1NC(=O)c1cccc(OC)c1 | > 40 | > 100 | > 40 | > 100
CC(=O)c1ccccc1NC(=O)c1ccccc1F | > 40 | – | 24.1 | > 100
COC(=O)c1ccccc1NC(=O)c1ccccc1C | > 40 | 16.6 | 9.26 | > 100
COC(=O)c1ccccc1NC(=O)c1ccccc1Br | > 40 | 22.9 | 12 | > 100
c1ccc2c(c1)[I+]c1ccccc1-2 [DIPHENYLENEIODONIUM] | – | – | 0.86 | –
CCCOC(=O)c1ccc(Cl)cc1NC(=O)c1ccccc1Cl | > 40 | 0.7 | > 40 | > 100
COC(=O)c1c(Cl)cccc1NC(=O)c1ccccc1Br | > 40 | 76.4 | > 40 | > 100
COC(=O)c1ccccc1NC(=O)c1ccccc1F | > 40 | 10.8 | 0.65 | > 100
CCOC(=O)c1ccccc1NC(=O)c1ccccc1F | 14.3 | – | 0.17 | > 100
COC(=O)c1cccc(Cl)c1NC(=O)c1ccccc1OC | > 40 | 66.6 | > 40 | > 100
COC(=O)c1cccc(Cl)c1NC(=O)c1ccccc1Cl | > 40 | > 100 | > 40 | > 100
CCCOC(=O)c1ccc(Cl)cc1NC(=O)c1ccccc1OC | > 40 | 23.4 | > 40 | > 100
COc1ccc2c(c1)c(CC(=O)O)c(C)n2C(=O)c1ccc(Cl)cc1 [INDOMETHACIN] | > 40 | 0.14 | > 40 | > 100
COC(=O)c1c(Cl)cccc1NC(=O)c1ccccc1Cl | > 40 | 80.8 | > 40 | > 100
